Counter-ions that a name gives are not always drawn.
Assays:
Type in all cases: biochemical
human α-thrombin = biological target: T1, human α-thrombin (Homo sapiens, UniProt P00734); assay: In vitro inhibition of purified thrombin, Ki determination (p-nitroanilide substrate hydrolysis); details: Enzyme: Thrombin; substrate Suc-Ala-Ala-Pro-Arg-pNA 20 μM, 37° C., pH 7.5
T1 construct: Purified human a-thrombin was diluted into assay buffer; purchased Enzyme Research Laboratories (South Bend, Indiana)
Source text: (§1) All buffer salts were obtained from Sigma Chemical Company (St. Louis, Mo.), and were of the highest purity available. The enzyme substrates, N-benzoyl-Phe-Val-Arg-p-nitroanilide (SigmaB7632),N-benzoyl-Ile-Glu-Gly-Arg-p-nitroanilide (Sigma B2291), N-p-tosyl-Gly-Pro-Lys-p-nitroanilide (Sigma T6140), and N-succinyl-Ala-Ala-Pro-Phe-p-nitroanilide (Sigma S7388) were all obtained from Sigma.
(§2) Human α-thrombin and human factor Xa were obtained from Enzyme Research Laboratories (South Bend, Indiana). Bovine trypsin was obtained from Sigma.
All assays are based on the ability of the test compound to inhibit the enzyme catalyzed hydrolysis of a peptide p-nitroanilide substrate. In a typical Ki determination, substrate is prepared in DMSO, and diluted into an assay buffer consisting of 50 mM HEPES, 200 mM NaCl, pH 7.5. The final concentration for each of the substrates is listed below. In general, substrate concentrations are lower than the experimentally determined value for Km. Test compounds are prepared as a 0.16 mg/mL solution in DMSO. Dilutions are prepared in DMSO yielding 8 final concentrations encompassing a 200-fold concentration range. Enzyme solutions are prepared at the concentrations listed below in assay buffer.
(§3) In a typical Ki determination, into each well of a 96 well plate is pipetted 280 uL of substrate solution, 10 μL of inhibitor solution, and the plate allowed to thermally equilibrate at 37° C. in a Molecular Devices plate reader for >10 minutes. Reactions were initiated by the addition of a 20 μL aliquot of enzyme, and the absorbance increase at 405 nm is recorded for 15 minutes. Data corresponding to less than 10% of the total substrate hydrolysis were used in the calculations. The ratio of the velocity (rate of the change in absorbance as a function of time) for a sample containing no inhibitor is divided by the velocity of a sample containing inhibitor, and is plotted as a finction of inhibitor concentration. The data are fit to a linear regression, and the value of the slope of the line calculated. The inverse of the slope is the experimentally determined Ki value.
Thrombin activity was assessed as the ability to hydrolyze the substrate Suc-Ala-Ala-Pro-Arg-pNA. Substrate solutions were prepared at a concentration of 20 μM (20 uM<<Km=180 μM) in assay buffer. Final DMSO concentration was 0.3%. Purified human a-thrombin was diluted into assay buffer to a concentration of […]. Final reagent concentrations were: [thrombin] ═0.5 nM, [Suc-Ala-Ala-Pro-Arg-pNA]=20 μM.

bovine trypsin = biological target: T2, bovine trypsin (Bos taurus, UniProt P00760); assay: In vitro inhibition of purified trypsin, Ki determination (p-nitroanilide substrate hydrolysis); details: Enzyme: Trypsin; substrate Bz-Phe-Val-Arg-pNA 14 μM, 37° C., pH 7.5
T2 construct: Purified bovine trypsin was diluted into assay buffer; purchased Sigma
T2 sequence (P00760 24-246): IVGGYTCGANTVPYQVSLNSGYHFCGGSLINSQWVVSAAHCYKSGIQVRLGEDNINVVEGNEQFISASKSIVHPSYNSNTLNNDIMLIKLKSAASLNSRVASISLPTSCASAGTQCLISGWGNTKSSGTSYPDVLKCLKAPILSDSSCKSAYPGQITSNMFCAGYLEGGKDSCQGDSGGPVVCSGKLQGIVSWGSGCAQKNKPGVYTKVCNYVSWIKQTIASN
Source text: as §1, §2
(§4) All assays are based on the ability of the test compound to inhibit the enzyme catalyzed hydrolysis of a peptide p-nitroanilide substrate. […] In general, substrate concentrations are lower than the experimentally determined value for Km. […]
as §3, with “Data corresponding to less than 10% of the total substrate hydrolysis were used in the calculations.” left out, “The data are fit to a linear regression, and the value of the slope of the line calculated. The inverse of the slope is the experimentally determined Ki value.” left out

human factor Xa = biological target: T3, human factor Xa (Homo sapiens, UniProt P00742); assay: In vitro inhibition of purified factor Xa, Ki determination (p-nitroanilide substrate hydrolysis); details: Enzyme: Factor Xa; substrate Bz-Ile-Glu-Gly-Arg-pNA 51 μM, 37° C., pH 7.5
T3 construct: purchased Enzyme Research Laboratories (South Bend, Indiana)
T3 sequence (P00742 235-488 limits assumed): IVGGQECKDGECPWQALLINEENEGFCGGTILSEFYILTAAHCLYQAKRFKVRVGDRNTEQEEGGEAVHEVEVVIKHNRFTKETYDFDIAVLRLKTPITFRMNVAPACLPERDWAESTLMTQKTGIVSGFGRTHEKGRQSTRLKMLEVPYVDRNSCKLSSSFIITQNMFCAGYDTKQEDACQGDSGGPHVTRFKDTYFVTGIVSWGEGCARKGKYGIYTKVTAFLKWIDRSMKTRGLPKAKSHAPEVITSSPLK
T3 sequence (P00742 41-179 limits assumed): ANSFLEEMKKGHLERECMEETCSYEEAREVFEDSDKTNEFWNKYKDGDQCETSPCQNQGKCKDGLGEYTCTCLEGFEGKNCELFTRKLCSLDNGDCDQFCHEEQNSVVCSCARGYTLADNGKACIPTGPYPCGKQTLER
Source text: as §1, §2, §4
as §3, with “Data corresponding to less than 10% of the total substrate hydrolysis were used in the calculations.” left out, “The data are fit to a linear regression, and the value of the slope of the line calculated. The inverse of the slope is the experimentally determined Ki value.” left out

bovine α-chymotrypsin = biological target: T4, bovine α-chymotrypsin (Bos taurus, UniProt P00766); assay: In vitro inhibition of purified chymotrypsin, Ki determination (p-nitroanilide substrate hydrolysis); details: Enzyme: Chymotrypsin; substrate Suc-Ala-Ala-Pro-Phe-pNA 14 μM, 37° C., pH 7.5
T4 construct: Purified bovine x-chymotrypsin was diluted into assay buffer
Source text: as §1
All assays are based on the ability of the test compound to inhibit the enzyme catalyzed hydrolysis of a peptide p-nitroanilide substrate. In a typical Ki determination, substrate is prepared in DMSO, and diluted into an assay buffer consisting of 50 mM HEPES, 200 mM NaCl, pH 7.5. […] In general, substrate concentrations are lower than the experimentally determined value for Km. […]
as §3, with “Data corresponding to less than 10% of the total substrate hydrolysis were used in the calculations.” left out, “The data are fit to a linear regression, and the value of the slope of the line calculated. The inverse of the slope is the experimentally determined Ki value.” left out

Row | Ki (human α-thrombin) | SMILES | also measured
1 | 1.72 µM | CC(=N)N1CCC(COc2cc(C)cc(OS(=O)(=O)c3cccc(Cl)c3Cl)c2)CC1 [Example 8, 2,3-Dichlorobenzenesulfonic acid 3-[[(1-acetimidoyl)piperidin-4-yl]methoxy]-5-methylphenyl ester hydrochloride] | 
2 |  | Cc1cc(OCc2cccc(C(=N)NO)c2)cc(OS(=O)(=O)c2ccccc2Cl)c1 [Example 7, 2-Chlorobenzenesutronic acid 3-[[3-(N-hydroxy)amidinophenyl]methoxy-5-methylphenyl ester hydrochloride] | Ki (bovine trypsin): 5.23 µM
3 | 0.57 µM | Cc1cc(OCCCC(=N)N)cc(OS(=O)(=O)c2ccccc2Cl)c1 [Example 14, 2-Chlorobenzenesulfonic acid 3-[3-amidinopropoxy]-5-methylphenyl ester hydrochloride] | 
4 | 4.86 µM | CC(=N)N1CCC(COc2cc(C)cc(OS(=O)(=O)c3cccc(Cl)c3)c2)CC1 [Example 5, 3-Chlorobenzenesulfonic acid 3-[[(1-acetimidoyl)piperidin-4-yl]methoxyl]-5-methylphenyl ester hydrochloride] | 
5 |  | Cc1cc(OCc2cccc(C(=N)N)c2)cc(OS(=O)(=O)c2ccccc2Cl)c1 [Example 6, 2-Chlorobenzenesulfonic acid 3-[(3amidinophenyl)methoxy]-5-methylphenyl ester hydrochloride] | Ki (human factor Xa): 2.72 µM
6 |  | Cc1cc(OCCCCCC(=N)N)cc(OS(=O)(=O)c2ccccc2Cl)c1 [Example 18, 2-Chlorobenzenesulfonic acid 3-[5-amidinopentyloxy]-5-methylphlenyl ester acetic acid salt] | Ki (bovine α-chymotrypsin): 6.29 µM
7 | 1.65 µM | CC(=N)N1CCC(COc2cc(C)cc(OS(=O)(=O)c3ccccc3Cl)c2)CC1 [Example 1, 2-Chlorobenzenesulfonic acid 3-[(1-acetimidoylpiperidin-4-yl)methoxy]-5-methylphenyl ester hydrochloride] | 
